The source of these data is US20200037600A1, “MESOIONIC IMIDAZOPYRIDINES AS INSECTICIDES” (Bayer Aktiengesellschaft, priority 2017, published 2020).

Usually chromatographic logP stands for a lipophilicity value derived from retention on a column. Read a low chromatographic logP as a more hydrophilic compound.

Data set [1] relates to Myzus persicae. In words: Myzus persicae spray test. Type of data set: in vivo. As to conditions: application rate 500 g/ha, Chinese cabbage leaf discs, after 5 days; for pest or weed control at 500 g/ha: Myzus persicae, foliar, 120 h, read-out: efficacy. On the procedure:
Myzus persicae—Spray Test
(§1) Solvent: 78 parts by weight of acetone • • 1.5 parts by weight of dimethylformamide
(§2) Emulsifier: alkylaryl polyglycol ether
(§3) To produce a suitable active compound formulation, 1 part by weight of active compound is dissolved with the specified parts by weight of solvent and made up to the desired concentration with water containing an emulsifier concentration of 1000 ppm. To produce further test concentrations, the formulation is diluted with emulsifier-containing water.
Discs of Chinese cabbage leaves (Brassica pekinensis) infested by all stages of the green peach aphid (Myzus persicae) are sprayed with an active compound formulation of the desired concentration.
(§4) After 5 days, the efficacy in % is determined. 100% means that all the aphids have been killed; 0% means that no aphids have been killed.

The subject of another data set is Tetranychus urticae. In words: Tetranychus urticae spray test, OP-resistant. Type of data set: in vivo. The settings on record: application rate 500 g/ha, bean leaf discs, after 6 days. On the procedure:
Tetranychus urticae—Spray Test, OP-Resistant
(§5) Solvent: 78.0 parts by weight of acetone • • 1.5 parts by weight of dimethylformamide
as §2, §3
Discs of bean leaves (Phaseolus vulgaris) infested by all stages of the red spider mite (Tetranychus urticae) are sprayed with an active compound formulation of the desired concentration.
After 6 days, the efficacy in % is determined. 100% means that all the spider mites have been killed; 0% means that no spider mites have been killed.

The subject of data set [2] is Myzus persicae. In words: Myzus persicae oral test. Type of data set: in vivo. As to conditions: after 5 days; for pest or weed control at 4 ppm: Myzus persicae, po, 120 h, read-out: efficacy. On the procedure:
Solvent: 100 parts by weight of acetone
To produce a suitable active compound formulation, 1 part by weight of active compound is dissolved with the stated parts by weight of solvent and made up to the desired concentration with water.
50 μl of the active compound formulation are transferred into microtitre plates and made up to a final volume of 200 μl with 150 μl of IPL41 insect medium (33%+15% sugar). Subsequently, the plates are sealed with parafilm, which a mixed population of green peach aphids (Myzus persicae) within a second microtitre plate is able to puncture and imbibe the solution.
as §4

Another data set concerns Musca domestica. In words: Musca domestica test. As to conditions: application rate 100 ppm; adult houseflies; after 2 days. Format: in vivo. On the procedure:
(§6) Solvent: dimethyl sulfoxide
(§7) To produce a suitable active compound formulation, 10 mg of active compound are mixed with 0.5 ml of dimethyl sulfoxide, and the concentrate is diluted with water to the desired concentration.
Vessels containing a sponge treated with sugar solution and the active compound formulation of the desired concentration are populated with 10 adult houseflies (Musca domestica).
After 2 days, the kill in % is determined. 100% means that all of the flies have been killed; 0% means that none of the flies have been killed.

The test system of data set [3] is Ctenocephalides felis. In words: Ctenocephalides felis oral test. Format: in vivo. The settings on record: application rate 100 ppm in citrated cattle blood; adult cat fleas; after 2 days. Here is the method: Ctenocephalides felis—Oral Test
as §6
To produce a suitable active compound formulation, 10 mg of active compound are mixed with 0.5 ml of dimethyl sulfoxide. Dilution with citrated cattle blood gives the desired concentration.
About 20 unfed adult cat fleas (Ctenocephalides felis) are placed into a chamber which is closed at the top and bottom with gauze. A metal cylinder whose bottom end is closed with parafilm is placed onto the chamber. The cylinder contains the blood/active compound formulation, which can be imbibed by the fleas through the parafilm membrane.
After 2 days, the kill in % is determined. 100% means that all of the fleas have been killed; 0% means that none of the fleas have been killed.

For another data set, the system named is Diabrotica balteata. In words: Diabrotica balteata spray test. Format: in vivo. As to conditions: application rate 160 μg/well, beetle larvae on germinated wheat grains, after 7 days; for pest or weed control at 160 µg/disc, 160 µg/well: Diabrotica balteata, 168 h, read-out: efficacy. On the procedure: Diabrotica balteata—Spray Test
as §1, §2, §3
Pre-swollen wheat grains (Triticum aestivum) are incubated in a multiwell plate filled with agar and a little water for one day (5 seed grains per well). The germinated wheat grains are sprayed with an active compound preparation of the desired concentration. Subsequently, each cavity is infected with 10-20 beetle larvae of Diabrotica balteata.
After 7 days, the efficacy in % is determined. 100% means that all maize plants have grown as in the untreated, uninfected control; 0% means that no maize plant has grown.

In data set [4] the test system is Ctenocephalides felis. In words: Ctenocephalides felis in vitro contact test with adult cat fleas. Format: in vivo. The settings on record: application rate 5 μg/cm^2 (=500 g/ha), after 48 h. On the procedure: Ctenocephalides felis—In Vitro Contact Tests with Adult Cat Fleas
(§8) For the coating of the test tubes, 9 mg of active compound are first dissolved in 1 ml of acetone p.a. and then diluted to the desired concentration with acetone p.a. 250 μl of the solution are distributed homogeneously on the inner walls and the base of a 25 ml glass tube by turning and rocking on an orbital shaker (rocking rotation at 30 rpm for 2 h). With 900 ppm of active compound solution and internal surface area 44.7 cm^2, given homogeneous distribution, an area-based dose of 5 μg/cm^2 is achieved.
After the solvent has evaporated off, the tubes are populated with 5-10 adult cat fleas (Ctenocephalides felis), sealed with a perforated plastic lid and incubated in a horizontal position at room temperature and ambient humidity. After 48 h, efficacy is determined. To this end, the tubes are stood upright and the fleas are knocked to the base of the tube. Fleas which remain motionless at the base or move in an uncoordinated manner are considered to be dead or moribund.
100% efficacy means that all the fleas were dead or moribund. 0% efficacy means that no fleas were harmed.

The next data set has as its system Phaedon cochleariae. In words: Phaedon cochleariae spray test. Format: in vivo. The settings on record: foliar, 168 h, application rate 500 g/ha, larvae on Chinese cabbage leaf discs, after 7 days, read-out: efficacy. Here is the method: Phaedon cochleariae—Spray Test
as §5, §2, §3
Discs of Chinese cabbage leaves (Brassica pekinensis) are sprayed with an active compound formulation of the desired concentration and, after drying, populated with larvae of the mustard beetle (Phaedon cochleariae).
After 7 days, the efficacy in % is determined. 100% means that all the beetle larvae have been killed; 0% means that no beetle larvae have been killed.

A further data set concerns Spodoptera frugiperda. In words: Spodoptera frugiperda spray test. Format: in vivo. As to conditions: application rate 500 g/ha; caterpillars on maize leaf discs; after 7 days. On the procedure:
Spodoptera frugiperda—Spray Test
as §5, §2, §3
Leaf discs of maize (Zea mays) are sprayed with an active compound formulation of the desired concentration and, after drying, populated with caterpillars of the fall armyworm (Spodoptera frugiperda).
After 7 days, the efficacy in % is determined. 100% means that all the caterpillars have been killed; 0% means that no caterpillar has been killed.

The test system of another data set is Rhipicephalus sanguineus. In words: Rhipicephalus sanguineus in vitro contact test with adults of the brown dog tick. Format: in vivo. The settings on record: application rate 5 μg/cm^2 (=500 g/ha), adult dog ticks, after 48 h. On the procedure: Rhipicephalus sanguineus—In Vitro Contact Tests with Adults of the Brown Dog Tick
as §8
After the solvent has evaporated off, the tubes are populated with 5-10 adult dog ticks (Rhipicephalus sanguineus), sealed with a perforated plastic lid and incubated in the dark in a horizontal position at room temperature and ambient humidity. After 48 h, efficacy is determined. To this end, the ticks are knocked to the base of the tube and, incubated on a heating plate at 45-50° C. for a maximum of 5 minutes. Ticks which remain motionless at the base or move in such an uncoordinated manner that they cannot purposely escape the heat by climbing upward are considered to be dead or moribund.
100% efficacy means that all the ticks were dead or moribund. 0% efficacy means that no ticks were harmed.

The nature of data set [5]: log P by HPLC (EEC directive 79/831 Annex V.A8). Format: physicochemical. Here is the method: The log P values reported in the tables and preparation examples above were determined in accordance with EEC directive 79/831 Annex V.A8 by HPLC (High Performance Liquid Chromatography) using a reversed-phase column (C18). Temperature 43° C. The calibration is effected with unbranched alkan-2-ones (having 3 to 16 carbon atoms), for which the log P values are known.

In another data set the test system is Lucilia cuprina. In words: Lucilia cuprina test. Format: in vivo. As to conditions: application rate 100 ppm; L1 larvae; after 2 days. On the procedure:
as §6, §7
About 20 L1 larvae of the Australian sheep blowfly (Lucilia cuprina) are transferred into a test vessel containing minced horsemeat and the active compound formulation of the desired concentration.
After 2 days, the kill in % is determined. 100% means that all the larvae have been killed; 0% means that no larvae have been killed.

In the case of `COCCOC(=O)C(=O)c1c([O-])[n+]2ccccc2n1Cc1cnc(Cl)s1` [Example I-050], the efficacy was found to be 100% in the data set with Myzus persicae [1], 90% in the data set with Tetranychus urticae and 100% in the data set with Myzus persicae [2] (application rate 4 ppm).

As to `CCOC(=O)C(=O)c1c([O-])[n+]2cccc(C)c2n1Cc1cnc(Cl)s1` [Example I-033], the pest or weed control at 500 g/ha in the data set with Myzus persicae [1] stood at 90%. For the same compound, the “efficacy (kill in %)” value is 100% in the data set on Musca domestica and 95% in the data set with Ctenocephalides felis [3]. In addition, in the data set with Diabrotica balteata, the pest or weed control at 160 µg/disc, 160 µg/well came out at 100%. The pest or weed control at 4 ppm in the data set with Myzus persicae [2] (application rate 4 ppm) turned out to be 100%. For the same compound, the efficacy with Ctenocephalides felis [4] is 100%.

On to `Cc1ccc[n+]2c([O-])c(C(=O)C(F)(F)F)n(Cc3cnc(Cl)s3)c12` [Example I-024, 1-[(2-Chlorothiazol-5-yl)methyl]-8-methyl-2-(2,2,2-trifluoroacetyl)imidazo[1,2-a]pyridin-4-ium-3-olate], for which the pest or weed control at 500 g/ha in the data set on Phaedon cochleariae stood at 100%; in the data set on Myzus persicae [1], 90%. The efficacy turned out to be 83% with Spodoptera frugiperda, 100% with Rhipicephalus sanguineus and 100% in the data set with Ctenocephalides felis [4]. Moreover, the “efficacy (kill in %)” value in the data set on Ctenocephalides felis [3] stood at 90%; with Lucilia cuprina it was 100%. Also, in the data set on Diabrotica balteata, the pest or weed control at 160 µg/disc, 160 µg/well came out at 100%. For the same compound, in the data set with Myzus persicae [2] (application rate 4 ppm), the pest or weed control at 4 ppm came to 100%. Further, the chromatographic logP in data set [5] was 2.07.

For `CN(C)C(=O)C(=O)c1c([O-])[n+]2ccccc2n1Cc1cnc(Cl)s1` [Example I-041], the efficacy in the data set with Tetranychus urticae came out at 90%.

As to `CCN(CC)C(=O)C(=O)c1c([O-])[n+]2ccccc2n1Cc1cnc(Cl)s1` [Example I-040], the efficacy is on record as 90% in the data set with Myzus persicae [1] and 100% in the data set with Tetranychus urticae.

In the case of `Cc1ccc[n+]2c([O-])c(C(=O)C(F)F)n(Cc3cnc(Cl)s3)c12` [Example I-061], the pest or weed control at 500 g/ha in the data set on Phaedon cochleariae is 100%. The compound further registered an efficacy with Spodoptera frugiperda of 100%. Moreover, the pest or weed control at 4 ppm with Myzus persicae [2] (application rate 4 ppm) was 100%.

Regarding `O=C(c1c([O-])[n+]2ccccc2n1Cc1cnc(Cl)s1)C(F)(F)Cl` [Example I-019], the efficacy with Spodoptera frugiperda, in the data set on Myzus persicae [1], in the data set with Diabrotica balteata, with Myzus persicae [2] (application rate 4 ppm) and in the data set on Ctenocephalides felis [4] was 100% each time. Also, the figures for the “efficacy (kill in %)” value with Musca domestica, in the data set with Ctenocephalides felis [3] and in the data set with Lucilia cuprina were 80%, 95% and 95%, respectively.

In the case of `Cc1ccc[n+]2c([O-])c(C(=O)C(=O)OCC3CCC3)n(Cc3cnc(Cl)s3)c12` [Example I-046], the pest or weed control at 500 g/ha turned out to be 100% in the data set with Phaedon cochleariae and 90% in the data set on Myzus persicae [1]. Further, the efficacy with Spodoptera frugiperda stood at 83%. Further, the pest or weed control at 160 µg/disc, 160 µg/well in the data set on Diabrotica balteata was 100%. Further, the pest or weed control at 4 ppm in the data set on Myzus persicae [2] (application rate 4 ppm) amounted to 100%.

Take `CCC(C)OC(=O)C(=O)c1c([O-])[n+]2ccccc2n1Cc1cnc(Cl)s1` (centres unmarked) [Example I-037]: the efficacy came out at 100% in the data set on Myzus persicae [1], 100% in the data set on Diabrotica balteata, 90% in the data set on Tetranychus urticae and 100% in the data set on Myzus persicae [2] (application rate 4 ppm). The entries for the “efficacy (kill in %)” value in the data set on Musca domestica and in the data set on Lucilia cuprina were 100% and 95%, respectively.

Take `CC(C)OC(=O)C(=O)c1c([O-])[n+]2ccccc2n1Cc1cnc(Cl)s1` [Example I-038]: the efficacy came to 90% with Myzus persicae [1], 100% with Rhipicephalus sanguineus, 80% in the data set with Rhipicephalus sanguineus (listed as 1-038) and 100% in the data set on Myzus persicae [2] (application rate 4 ppm). The figures for the “efficacy (kill in %)” value with Musca domestica, in the data set on Ctenocephalides felis [3] and in the data set on Lucilia cuprina were 100%, 80% and 90%, respectively.

With `O=C(c1c([O-])[n+]2ccccc2n1Cc1cnc(Cl)s1)C(F)(F)F` [Example I-007], the efficacy with Myzus persicae [1], with Diabrotica balteata, in the data set with Myzus persicae [2] (application rate 4 ppm), in the data set with Myzus persicae [2] (application rate 20 ppm) and in the data set on Ctenocephalides felis [4] was 100% in each case. The “efficacy (kill in %)” value in the data set on Musca domestica was 90%; in the data set with Ctenocephalides felis [3], 95%; with Lucilia cuprina, 85%.

For `O=C(OCC1CCC1)C(=O)c1c([O-])[n+]2ccccc2n1Cc1cnc(Cl)s1` [Example I-039], the results for the efficacy with Myzus persicae [1], in the data set with Tetranychus urticae and with Myzus persicae [2] (application rate 4 ppm) were 90%, 90% and 100%, respectively.
